The record followed here is patent US12139492B2 (Endotarget Inc., priority 2021, dated 2024).

The subject of one assay is Mino cells. In words: Antiproliferative effect, MTS cell viability assay, Mino cells. It is filed as cell-based. The following applies: Homo sapiens, MINO, Mino mantle cell lymphoma cells; read-out: IC50 (anti-proliferation) Mino cells. An outline of the steps:
(§1)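 Readout was MTS-derived formazan absorbance (490 nm) reflecting metabolically active cells. Treatment lasted 72 h over a 0–10 μM range (0.001, 0.01, 0.1, 1, 10 μM) in JeKo-1 and Mino B-cell malignancy cells.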

In another assay the test system is JeKo-1 cells. In words: Antiproliferative effect, MTS cell viability assay, JeKo-1 cells. It is filed as cell-based. The following applies: Homo sapiens; JeKo-1 mantle cell lymphoma cells; read-out: IC50 (anti-proliferation) JeKO-1 cells. The method in brief:
as §1

The next assay concerns the target BTK (Homo sapiens, UniProt Q06187). In words: Degradation of BTK protein in Namalwa cells (Western blot; DC50, Dmax). Conditions: for DC50: BTK degradation, cell line not given.

A value given as a limit tells only on which side of the number the result lay.

Sequence of BTK (Q06187 whole entry): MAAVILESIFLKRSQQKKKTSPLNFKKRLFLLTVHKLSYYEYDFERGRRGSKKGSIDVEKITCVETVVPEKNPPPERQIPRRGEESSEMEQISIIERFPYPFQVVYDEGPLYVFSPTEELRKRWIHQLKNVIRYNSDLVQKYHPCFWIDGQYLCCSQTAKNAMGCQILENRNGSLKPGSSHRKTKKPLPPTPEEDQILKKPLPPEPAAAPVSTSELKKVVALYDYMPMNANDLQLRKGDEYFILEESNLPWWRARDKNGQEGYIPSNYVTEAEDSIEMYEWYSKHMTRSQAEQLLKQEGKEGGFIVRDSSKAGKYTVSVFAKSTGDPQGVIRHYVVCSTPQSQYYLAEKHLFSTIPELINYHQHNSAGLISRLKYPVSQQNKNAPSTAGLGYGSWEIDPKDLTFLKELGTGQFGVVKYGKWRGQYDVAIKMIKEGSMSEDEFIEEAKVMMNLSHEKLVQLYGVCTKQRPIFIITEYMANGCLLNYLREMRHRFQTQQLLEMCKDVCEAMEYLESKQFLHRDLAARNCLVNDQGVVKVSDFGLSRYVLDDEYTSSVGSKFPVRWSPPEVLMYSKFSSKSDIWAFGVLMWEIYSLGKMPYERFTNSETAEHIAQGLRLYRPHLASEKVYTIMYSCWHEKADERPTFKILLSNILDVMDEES

Turning to `NC(=O)c1c(-c2ccc(Oc3ccccc3)cc2)nn2c1NCCC2C1CCN(CC2CCN(C(=O)N3CCN(C4CCN(c5ccc6c(c5)C(=O)N(C5CCC(=O)NC5=O)C6=O)CC4)CC3)CC2)CC1` (centres unmarked) [Compound 361, 7-(1-((1-(4-(1-(2-(2,6-dioxopiperidin-3-yl)-1,3-dioxoisoindolin-5-yl)piperidin-4-yl)piperazine-1-carbonyl)piperidin-4-yl)methyl)piperidin-4-yl)-2-(4-phenoxyphenyl)-4,5,6,7-tetrahydropyrazolo[1,5-a]pyrimidine-3-carboxamide], the IC50 with Mino cells is 1000 to 10000 nM. The IC50 in the assay with JeKo-1 cells was in the range of 1000 to 10000 nM. At BTK, this compound had a Dmax greater than 90% and a DC50 of 10 to 50 nM.
For the compound `NC(=O)c1c(-c2ccc(Oc3ccccc3)cc2)nn2c1NCCC2C1CCN(CC2CCN(C(=O)N3CCN(C4CCN(c5ccc6c(c5)CN(C5CCC(=O)NC5=O)C6=O)CC4)CC3)CC2)CC1` (centres unmarked) [Compound 362, 7-(1-((1-(4-(1-(2-(2,6-dioxopiperidin-3-yl)-1-oxoisoindolin-5-yl)piperidin-4-yl)piperazine-1-carbonyl)piperidin-4-yl)methyl)piperidin-4-yl)-2-(4-phenoxyphenyl)-4,5,6,7-tetrahydropyrazolo[1,5-a]pyrimidine-3-carboxamide], the IC50 in the assay with Mino cells lay in the range of 1000 to 10000 nM. Besides, the IC50 in the assay with JeKo-1 cells fell in the range of 1000 to 10000 nM. On BTK, this compound showed a Dmax greater than 90% and a DC50 of less than 10 nM.
In the case of `NC(=O)c1c(-c2ccc(Oc3ccccc3)cc2)nn2c1NCCC2C1CCN(CC2CCN(C(=O)N3CCC(N4CCN(c5ccc6c(c5)C(=O)N(C5CCC(=O)NC5=O)C6=O)CC4)CC3)CC2)CC1` (centres unmarked) [Compound 363, 7-(1-((1-(4-(4-(2-(2,6-dioxopiperidin-3-yl)-1,3-dioxoisoindolin-5-yl)piperazin-1-yl)piperidine-1-carbonyl)piperidin-4-yl)methyl)piperidin-4-yl)-2-(4-phenoxyphenyl)-4,5,6,7-tetrahydropyrazolo[1,5-a]pyrimidine-3-carboxamide], the IC50 in the assay with Mino cells is less than 1000 nM. In the assay on JeKo-1 cells, the IC50 was in the range of 1000 to 10000 nM. Moreover, at BTK, the Dmax was greater than 90% and the 50% degradation concentration (DC50) lay in the range of 10 to 50 nM.
Turning to `NC(=O)c1c(-c2ccc(Oc3ccccc3)cc2)nn2c1NCCC2C1CCN(CC2CCN(C(=O)N3CCC(N4CCN(c5ccc6c(c5)CN(C5CCC(=O)NC5=O)C6=O)CC4)CC3)CC2)CC1` (centres unmarked) [Compound 364, 7-(1-((1-(4-(4-(2-(2,6-dioxopiperidin-3-yl)-1-oxoisoindolin-5-yl)piperazin-1-yl)piperidine-1-carbonyl)piperidin-4-yl)methyl)piperidin-4-yl)-2-(4-phenoxyphenyl)-4,5,6,7-tetrahydropyrazolo[1,5-a]pyrimidine-3-carboxamide], the IC50 in the assay with Mino cells is less than 1000 nM. Moreover, the IC50 in the assay with JeKo-1 cells was less than 1000 nM. At BTK, the greatest degradation seen (Dmax) is greater than 90% and the DC50 is less than 10 nM.
In the case of `NC(=O)c1c(-c2ccc(Oc3ccccc3)cc2)nn2c1NCCC2C1CCN(CC2CCN(C(=O)N3CCC(C4CCN(c5ccc6c(c5)C(=O)N(C5CCC(=O)NC5=O)C6=O)CC4)CC3)CC2)CC1` (centres unmarked) [Compound 365, 7-(1-((1-(1′-(2-(2,6-dioxopiperidin-3-yl)-1,3-dioxoisoindolin-5-yl)-[4,4′-bipiperidine]-1-carbonyl)piperidin-4-yl)methyl)piperidin-4-yl)-2-(4-phenoxyphenyl)-4,5,6,7-tetrahydropyrazolo[1,5-a]pyrimidine-3-carboxamide], the IC50 with Mino cells is less than 1000 nM. Besides, the IC50 in the assay on JeKo-1 cells is less than 1000 nM. Moreover, on BTK, the maximal degradation (Dmax) was greater than 90% and the DC50 was 10 to 50 nM.
Consider `NC(=O)c1c(-c2ccc(Oc3ccccc3)cc2)nn2c1NCCC2C1CCN(CC2CCN(C(=O)N3CCC(C4CCN(c5ccc6c(c5)CN(C5CCC(=O)NC5=O)C6=O)CC4)CC3)CC2)CC1` (centres unmarked) [Compound 366, 7-(1-((1-(1′-(2-(2,6-dioxopiperidin-3-yl)-1-oxoisoindolin-5-yl)-[4,4′-bipiperidine]-1-carbonyl)piperidin-4-yl)methyl)piperidin-4-yl)-2-(4-phenoxyphenyl)-4,5,6,7-tetrahydropyrazolo[1,5-a]pyrimidine-3-carboxamide], for which the IC50 with Mino cells and in the assay with JeKo-1 cells was less than 1000 nM each time. On BTK, this compound showed a Dmax greater than 90%. For the same compound, the DC50 on BTK is less than 10 nM.
For the compound `NC(=O)c1c(-c2ccc(Oc3ccccc3)cc2)nn2c1NCCC2C1CCN(CC2CCN(C(=O)N3CCC(N4CCC(c5ccc6c(c5)C(=O)N(C5CCC(=O)NC5=O)C6=O)CC4)CC3)CC2)CC1` (centres unmarked) [Compound 367, 7-(1-((1-(4-(2-(2,6-dioxopiperidin-3-yl)-1,3-dioxoisoindolin-5-yl)-[1,4′-bipiperidine]-1′-carbonyl)piperidin-4-yl)methyl)piperidin-4-yl)-2-(4-phenoxyphenyl)-4,5,6,7-tetrahydropyrazolo[1,5-a]pyrimidine-3-carboxamide], the IC50 in the assay on Mino cells was less than 1000 nM; in the assay on JeKo-1 cells it was 1000 to 10000 nM. This compound gave a Dmax on BTK greater than 90%. Moreover, the DC50 at BTK fell in the range of 10 to 50 nM.
Take `NC(=O)c1c(-c2ccc(Oc3ccccc3)cc2)nn2c1NCCC2C1CCN(CC2CCN(C(=O)N3CCC(N4CCC(c5ccc6c(c5)CN(C5CCC(=O)NC5=O)C6=O)CC4)CC3)CC2)CC1` (centres unmarked) [Compound 368, 7-(1-((1-(4-(2-(2,6-dioxopiperidin-3-yl)-1-oxoisoindolin-5-yl)-[1,4′-bipiperidine]-1′-carbonyl)piperidin-4-yl)methyl)piperidin-4-yl)-2-(4-phenoxyphenyl)-4,5,6,7-tetrahydropyrazolo[1,5-a]pyrimidine-3-carboxamide]: in the assay with Mino cells, the IC50 was less than 1000 nM. Further, the IC50 in the assay on JeKo-1 cells was in the range of 1000 to 10000 nM. Moreover, on BTK, the Dmax is greater than 90% and the DC50 is less than 10 nM.
The like results for `NC(=O)c1c(-c2ccc(Oc3ccccc3)cc2)nn2c1NCCC2C1CCN(CC2CCN(C(=O)N3CCC(CN4CCN(c5ccc6c(c5)C(=O)N(C5CCC(=O)NC5=O)C6=O)CC4)CC3)CC2)CC1` (centres unmarked) [Compound 369, 7-(1-((1-(4-((4-(2-(2,6-dioxopiperidin-3-yl)-1,3-dioxoisoindolin-5-yl)piperazin-1-yl)methyl)piperidine-1-carbonyl)piperidin-4-yl)methyl)piperidin-4-yl)-2-(4-phenoxyphenyl)-4,5,6,7-tetrahydropyrazolo[1,5-a]pyrimidine-3-carboxamide] were, in that order, less than 1000 nM, 1000 to 10000 nM, greater than 90% and less than 10 nM.
The like results for `NC(=O)c1c(-c2ccc(Oc3ccccc3)cc2)nn2c1NCCC2C1CCN(CC2CCN(C(=O)N3CCC(CN4CCN(c5ccc6c(c5)CN(C5CCC(=O)NC5=O)C6=O)CC4)CC3)CC2)CC1` (centres unmarked) [Compound 370, 7-(1-((1-(4-((4-(2-(2,6-dioxopiperidin-3-yl)-1-oxoisoindolin-5-yl)piperazin-1-yl)methyl)piperidine-1-carbonyl)piperidin-4-yl)methyl)piperidin-4-yl)-2-(4-phenoxyphenyl)-4,5,6,7-tetrahydropyrazolo[1,5-a]pyrimidine-3-carboxamide] were, in that order, less than 1000 nM, less than 1000 nM, greater than 90% and less than 10 nM.
The corresponding values for `NC(=O)c1c(-c2ccc(Oc3ccccc3)cc2)nn2c1NCCC2C1CCN(CC2CCN(C(=O)N3CCN(CC4CCN(c5ccc6c(c5)C(=O)N(C5CCC(=O)NC5=O)C6=O)CC4)CC3)CC2)CC1` (centres unmarked) [Compound 371] are less than 1000 nM, less than 1000 nM, greater than 90% and 10 to 50 nM.
